Experimental data as given in patent US20070129344A1, “Bicyclic 6-alkylidene-penem beta-lactamase inhibitors and beta-lactam antibiotic combination: a broad spectrum antibiotic” (priority 2005, published 2007).
≈ marks a conversion by molar mass, not a printed value. Where two headings read alike, the source gives them in different places.

Legend:
[1] = system: K. pneumoniae GC 7632 TEM-1 KPC-2, SHV-7, SHV-12; assay: MIC microbroth dilution; β-lactamase class A, A (Cb'ase), A (ESBL); assay type: cell-based; settings: Cefepime alone
Description: (§1) The in vitro activities of the antibiotics were determined by the microbroth dilution method as recommended by the National Committee for Clinical Laboratory Standards (NCCLS). (NCCLS. 2000. Methods for Dilution Antimicrobial Susceptibility Tests for Bacteria That Grow Aerobically; Approved Standards: M7-A5, vol. 19. National Committee for Clinical Laboratory Standards, Villanova, Pa.). Mueller-Hinton II broth (MHBII)(BBL Cockeysville, Md.), was used for the testing procedure. […]. The plates were incubated for 18-22 hours at 35° C. in ambient air.

[2] = system: K. pn GC 6639 (SHV-13); assay: MIC microbroth dilution; β-lactamase class A (ESBL); assay type: cell-based, K. pneumoniae; settings: Cefepime alone
Description: as §1

[3] = system: K. pn GC 1830 (SHV-2); assay: as above; assay type: cell-based, K. pneumoniae; settings: Klebsiella pneumoniae, Cefepime alone, read-out: MIC
Description: as §1

[4] = system: K. pn GC 1832 (SHV-4); assay: as above; assay type: cell-based, K. pneumoniae; settings: Cefepime alone
Description: as §1

[5] = system: E. coli GC 2804 (imp); assay: MIC microbroth dilution; β-lactamase class none; assay type: cell-based; settings: Escherichia coli, Cefepime alone
Description: as §1

[6] = system: E. coli GC 2844 (none); assay: MIC microbroth dilution; β-lactamase class none; assay type: cell-based; settings: Cefepime alone
Description: as §1

[7] = system: E. coli ATCC 25922 (none); assay: MIC microbroth dilution; β-lactamase class none; assay type: cell-based; settings: Escherichia coli, ATCC25922, E. coli ATCC 25922, Cefepime alone, read-out: MIC
Description: as §1

[8] = system: E. coli GC 2847 (TEM-1); assay: MIC microbroth dilution; β-lactamase class A; assay type: cell-based; settings: Escherichia coli, Cefepime alone, read-out: MIC
Description: as §1

[9] = system: E. coli GC 1995 (TEM-10); assay: MIC microbroth dilution; β-lactamase class A (ESBL); assay type: cell-based; settings: Escherichia coli, Cefepime alone, read-out: MIC
Description: as §1

[10] = system: S. typhimurium GC 4197 CTX-M-5; assay: as above; assay type: cell-based; settings: Cefepime alone
Description: as §1

[11] = system: E. coli GC 2017 (TEM-10 + pl 6.3; 8.1); assay: as above; assay type: cell-based; settings: Cefepime alone
Description: as §1

[12] = system: E. coli GC 2400 (TEM-43); assay: as above; assay type: cell-based; settings: Cefepime alone
Description: as §1

[13] = system: E. coli GC 1684 (TEM-10); assay: as above; assay type: cell-based; settings: Cefepime alone
Description: as §1

[14] = system: E. coli GC 6368 (SHV-7); assay: as above; assay type: cell-based; settings: Escherichia coli, Cefepime alone, read-out: MIC
Description: as §1

[15] = system: E. coli GC 2300 (TEM-28); assay: as above; assay type: cell-based; settings: Cefepime alone
Description: as §1

[16] = system: A. baumannii PT 9158 PTZ-R; assay: MIC microbroth dilution; β-lactamase class not determined; assay type: cell-based; settings: Cefepime alone
Description: as §1

[17] = system: A. baumannii PT 8321 PTZ-R; assay: as above; assay type: cell-based; settings: Cefepime alone
Description: as §1

[18] = system: E. coli GC 4971 OXA-1, TEM-1; assay: MIC microbroth dilution; β-lactamase class A, D; assay type: cell-based; settings: Escherichia coli, Cefepime alone, read-out: MIC
Description: as §1

[19] = system: K. pn GC 2006 (TEM-10 + SHV-1); assay: MIC microbroth dilution; β-lactamase class A, A (ESBL); assay type: cell-based, K. pneumoniae; settings: Klebsiella pneumoniae, Cefepime alone, read-out: MIC
Description: as §1

[20] = system: K. pn GC 1507 (TEM-9 + SHV-1); assay: as above; assay type: cell-based, K. pneumoniae; settings: Cefepime alone
Description: as §1

[21] = system: K. pn GC 6494 (TEM-1 + SHV-5); assay: as above; assay type: cell-based, K. pneumoniae; settings: Klebsiella pneumoniae, Cefepime alone, read-out: MIC
Description: as §1

[22] = system: K. pn GC 3057 (CAZ-R; P/T-R); assay: as above; assay type: cell-based, K. pneumoniae; settings: Cefepime alone
Description: as §1

[23] = system: K. pn GC 6657 (TEM-1 + SHV-27); assay: as above; assay type: cell-based, K. pneumoniae; settings: Cefepime alone
Description: as §1

[24] = system: K. pn GC 1963 (TEM-10 + SHV-1 + SHV-ESBL); assay: as above; assay type: cell-based, K. pneumoniae; settings: Cefepime alone
Description: as §1

[25] = system: K. pn GC 6488 (TEM-1 + SHV-5 + SHV-7); assay: as above; assay type: cell-based, K. pneumoniae; settings: Klebsiella pneumoniae, Cefepime alone, read-out: MIC
Description: as §1

[26] = system: K. pn GC 1554 (TEM-1 + TEM-26 + SHV-1); assay: as above; assay type: cell-based, K. pneumoniae; settings: Klebsiella pneumoniae, Cefepime alone, read-out: MIC
Description: as §1

[27] = system: K. pn GC 6651 (TEM-1 + SHV-1 + SHV-5); assay: as above; assay type: cell-based, K. pneumoniae; settings: Klebsiella pneumoniae, Cefepime alone, read-out: MIC
Description: as §1

[28] = system: S. maltophilia GC 1712 (L1); assay: MIC microbroth dilution; β-lactamase class B; assay type: cell-based; settings: Cefepime alone
Description: as §1

[29] = system: E. coli GC 6197 (TEM-1 + SHV-7 + CMY-2); assay: MIC microbroth dilution; β-lactamase class A, A (ESBL), C; assay type: cell-based; settings: Cefepime alone
Description: as §1

[30] = system: K. pneumoniae GC 2826 Act 1 + 3 additional; assay: as above; assay type: cell-based; settings: Cefepime alone
Description: as §1

[31] = system: E. coli GC 2149 (ACT-1; TEM-1 + pl 5.6); assay: as above; assay type: cell-based; settings: Escherichia coli, Cefepime alone, read-out: MIC
Description: as §1

[32] = system: K. pneumoniae GC 2825 Act 1 + 3 additional; assay: as above; assay type: cell-based; settings: Cefepime alone
Description: as §1

[33] = system: E. coli GC 2920 (IRT-2); assay: MIC microbroth dilution; β-lactamase class A (IRT); assay type: cell-based; settings: Cefepime alone
Description: as §1

[34] = system: E. coli GAR 6649 TEM, OXA, CTX (By PCR only); assay: MIC microbroth dilution; β-lactamase class A, A (ESBL), D; assay type: cell-based; settings: Cefepime alone
Description: as §1

[35] = Klebsiella pneumoniae, control of Compound 1 test, read-out: MIC
[36] = Escherichia coli, control of Compound 1 test, read-out: MIC

CO/N=C(\C(=O)N[C@@H]1C(=O)N2C(C(=O)[O-])=C(C[N+]3(C)CCCC3)CS[C@H]12)c1csc(N)n1 [Cefepime, reference compound]
MIC ([1]; control of Compound 2 test): >16 µg/mL
MIC [1, 35]: > 16 µg/mL
MIC ([2]; control of Compound 2 test): >16 µg/mL
MIC [2, 35]: > 16 µg/mL
MIC ([3]; control of Compound 1 test): 1 µg/mL (≈ 2.08 µM)
MIC ([3]; control of Compound 2 test): 0.5 µg/mL (≈ 1.04 µM)
MIC ([4]; control of Compound 2 test): 2 µg/mL (≈ 4.16 µM)
MIC [4, 35]: 2 µg/mL (≈ 4.16 µM)
MIC ([5]; control of Compound 1 test): 0.03 µg/mL (≈ 0.0624 µM)
MIC ([5]; control of Compound 2 test): < 0.015 µg/mL
MIC ([6]; control of Compound 2 test): 0.06 µg/mL (≈ 0.125 µM)
MIC [6, 36]: 0.06 µg/mL (≈ 0.125 µM)
MIC ([7]; control of Compound 1 test): 0.03 µg/mL (≈ 0.0624 µM)
MIC ([7]; control of Compound 2 test): 0.06 µg/mL (≈ 0.125 µM)
MIC ([8]; control of Compound 1 test): 0.12 µg/mL (≈ 0.25 µM)
MIC ([8]; control of Compound 2 test): 0.06 µg/mL (≈ 0.125 µM)
MIC ([9]; control of Compound 1 test): 8 µg/mL (≈ 16.6 µM)
MIC ([9]; control of Compound 2 test): 16 µg/mL (≈ 33.3 µM)
MIC ([10]; control of Compound 2 test): >16 µg/mL
MIC ([10]; Salmonella enterica, control of Compound 1 test, read-out: MIC): > 16 µg/mL
MIC ([11]; control of Compound 2 test): >16 µg/mL
MIC [11, 36]: > 16 µg/mL
MIC ([12]; control of Compound 2 test): >16 µg/mL
MIC [12, 36]: > 16 µg/mL
MIC ([13]; control of Compound 2 test): >16 µg/mL
MIC [13, 36]: > 16 µg/mL
MIC ([14]; control of Compound 1 test): 1 µg/mL (≈ 2.08 µM)
MIC ([14]; control of Compound 2 test): 2 µg/mL (≈ 4.16 µM)
MIC ([15]; control of Compound 2 test): 16 µg/mL (≈ 33.3 µM)
MIC [15, 36]: 16 µg/mL (≈ 33.3 µM)
MIC ([16]; Acinetobacter baumannii, PT9158PTZR, control of Compound 1 test, read-out: MIC): > 16 µg/mL
MIC ([16]; control of Compound 2 test): >16 µg/mL
MIC ([17]; Acinetobacter baumannii, PT8321PTZR, control of Compound 1 test, read-out: MIC): > 16 µg/mL
MIC ([17]; control of Compound 2 test): >16 µg/mL
MIC ([18]; control of Compound 1 test): 2 µg/mL (≈ 4.16 µM)
MIC ([18]; control of Compound 2 test): 4 µg/mL (≈ 8.32 µM)
MIC ([19]; control of Compound 1 test): > 16 µg/mL
MIC ([19]; control of Compound 2 test): 8 µg/mL (≈ 16.6 µM)
MIC ([20]; control of Compound 2 test): 8 µg/mL (≈ 16.6 µM)
MIC [20, 35]: 8 µg/mL (≈ 16.6 µM)
MIC ([21]; control of Compound 1 test): 4 µg/mL (≈ 8.32 µM)
MIC ([21]; control of Compound 2 test): 2 µg/mL (≈ 4.16 µM)
MIC ([22]; control of Compound 2 test): >16 µg/mL
MIC [22, 35]: > 16 µg/mL
MIC ([23]; control of Compound 2 test): 0.12 µg/mL (≈ 0.25 µM)
MIC [23, 35]: 0.12 µg/mL (≈ 0.25 µM)
MIC ([24]; control of Compound 2 test): >16 µg/mL
MIC [24, 35]: > 16 µg/mL
MIC ([25]; control of Compound 1 test): 8 µg/mL (≈ 16.6 µM)
MIC ([25]; control of Compound 2 test): 4 µg/mL (≈ 8.32 µM)
MIC ([26]; control of Compound 1 test): > 16 µg/mL
MIC ([26]; control of Compound 2 test): 8 µg/mL (≈ 16.6 µM)
MIC ([27]; control of Compound 1 test): 8 µg/mL (≈ 16.6 µM)
MIC ([27]; control of Compound 2 test): 4 µg/mL (≈ 8.32 µM)
MIC ([28]; control of Compound 2 test): >16 µg/mL
MIC ([28]; Stenotrophomonas maltophilia, control of Compound 1 test, read-out: MIC): > 16 µg/mL
MIC ([29]; control of Compound 2 test): >16 µg/mL
MIC [29, 36]: > 16 µg/mL
MIC ([30]; control of Compound 2 test): 8 µg/mL (≈ 16.6 µM)
MIC [30, 35]: 8 µg/mL (≈ 16.6 µM)
MIC ([31]; control of Compound 1 test): 8 µg/mL (≈ 16.6 µM)
MIC ([31]; control of Compound 2 test): 16 µg/mL (≈ 33.3 µM)
MIC ([32]; control of Compound 2 test): 2 µg/mL (≈ 4.16 µM)
MIC [32, 35]: 2 µg/mL (≈ 4.16 µM)
MIC ([33]; control of Compound 2 test): 0.06 µg/mL (≈ 0.125 µM)
MIC [33, 36]: 0.06 µg/mL (≈ 0.125 µM)
MIC ([34]; control of Compound 2 test): >16 µg/mL
MIC [34, 36]: > 16 µg/mL
